Source: patent US7378104B2, “Delivering substances to invertebrate organisms” (priority 2000, dated 2008)
Where “and” joins values, the source holds several entries; their conditions need not be identical. Identical values can stand only once. Like-named read-outs stand apart in the source and are kept apart here. Marks after values point to notes of the source that are not given here.

Columns and labels:
Channel Catfish = Channel Catfish 0.8-1.2 g; cited from earlier work
Zebra mussels [1] = assay: Experiment 8: Batch 7 particles versus KCl in beakers; assay type: in vivo, Dreissena polymorpha; settings: for No. of live mussels in each pot: 1.15 g KCl
Procedure: A batch of particles (“Batch 7”) was manufactured by a fluidised bed coating method. 98 μm KCl particles were passed through a 350 μm sieve with 1% silica to help fluidisation. 800 g of solids were sprayed with palmitic acid (MP 61° C.) for 20 minutes at approximately 12 ml min^−1. 400 g of the resulting solids were then further coated with palmitic acid to finally produce particles containing between 20 and 25% wt of KCl.
40 1-litre beakers were filled with 500 ml of tap water and aerated overnight in a temperature controlled room at 25° C. Ten large Zebra mussels were placed into each beaker, attempting to keep a similar size range in all. Five different treatments were applied (such that each had eight replicates); • 1. 5 g of (Batch 7) was added. • 2. 0.5 g of (Batch 7) was added. • 3. 0.05 g of (Batch 7) was added. • 4. 5 g of Palmitic acid alone was added. • 5. 1.15 g of KCl (the same amount by mass as in 5 g of Batch 7) was added.
Each treatment substance was thoroughly stirred into each beaker and aeration continued for the duration of the experiment. At reasonably regular intervals, the number of dead mussels (as indicated by gape) were counted in each pot, before being removed and measured. This was continued until most were dead, or 72 hours had elapsed.

Zebra Mussel = settings: cited from earlier work
Rainbow Trout = Rainbow Trout 0.8-1.2 g; cited from earlier work
Zebra mussels [2] = assay: Experiment 1: toxicity of different masses of KCl to Zebra mussels over two days; assay type: in vivo, Dreissena polymorpha
Procedure: The toxicity of KCl alone to Zebra mussels is illustrated in Table 1 below, which gives the results of the following experiment:
1) A series of pots where filled with 20 ml of distilled water plus a specified mass of KCl crystals, ground to less than 53 microns. The masses of KCl were chosen to represent the total amount of KCl that would be ingested by a mussel filtering 1 litre of water per day.
2) One mussel was placed in each pot (it was assumed that the mussel would continuously re-filter the limited amount of solution in the pot and thus ingest the required amount of KCl.

Threehorn Wartyback = test system: Threehorn Wartyback; design: unit not given here; settings: Threehorn Wartyback 30-50 mm; cited from earlier work
Zebra mussels [3] = assay type: in vivo, Dreissena polymorpha; settings: Mass of toxin 100 mg
Description: The toxicity of an alternative toxin was also investigated and compared with that of KCl.

In the case of [Cl-].[K+] [KCl, potassium chloride], the 48-hour LC50 (Channel Catfish) is given as 720 µg/mL, the “No. of live mussels in each pot” value (Zebra mussels [1]; 0.5 hrs) is given as 10 and the “No. of live mussels in each pot” value (Zebra mussels [1]; 1 hrs) is given as 10 and 9. For the same compound, the “No. of live mussels in each pot” value (Zebra mussels [1]; 1.5 hrs) was 10 and 9, the “No. of live mussels in each pot” value (Zebra mussels [1]; 2 hrs) was 10 and 9 and 7 and the “No. of live mussels in each pot” value (Zebra mussels [1]; 3 hrs) was 9 and 8 and 7 and 10. For the same compound, the “No. of live mussels in each pot” value (Zebra mussels [1]; 3.5 hrs) was 9 and 8 and 7 and 6, the “No. of live mussels in each pot” value (Zebra mussels [1]; 4.5 hrs) was 8 and 7 and 5 and 6 and 9 and the “No. of live mussels in each pot” value (Zebra mussels [1]; 5 hrs) was 7 and 6 and 4 and 5 and 8. The “No. of live mussels in each pot” value (Zebra mussels [1]; 6 hrs) was 6 and 4 and 5 and 7, the “No. of live mussels in each pot” value (Zebra mussels [1]; 7.5 hrs) was 6 and 4 and 3 and 5 and the mortality (Zebra mussels [1]; 1.15 g of KCl, especially over the first 8 hours) was “rapid mortality”. For the same compound, the 48-hour LC50 (Zebra Mussel; Zebra Mussel 5-8 mm) was 147 µg/mL, the 48-hour LC50 (Zebra Mussel; Zebra Mussel 20-25 mm) was 150 µg/mL and the 48-hour LC50 (Rainbow Trout) was 1610 µg/mL. For the same compound, the state of mussel (Zebra mussels [2]; 0.1 mg KCl, 17/03/99 16:30) was “Alive”, the state of mussel (Zebra mussels [2]; 0.1 mg KCl, 18/03/99 11:30) was “Alive” and the state of mussel (Zebra mussels [2]; 0.1 mg KCl, 18/03/99 13:30) was “Alive”. The state of mussel (Zebra mussels [2]; 0.1 mg KCl, 19/03/99 16:00) was “Alive”, the state of mussel (Zebra mussels [2]; 0.5 mg KCl, 17/03/99 16:30) was “Alive” and the state of mussel (Zebra mussels [2]; 0.5 mg KCl, 18/03/99 11:30) was “Alive”. For the same compound, the state of mussel (Zebra mussels [2]; 0.5 mg KCl, 18/03/99 13:30) was “Closed”, the state of mussel (Zebra mussels [2]; 0.5 mg KCl, 19/03/99 16:00) was “Alive” and the state of mussel (Zebra mussels [2]; 1 mg KCl, 17/03/99 16:30) was “Alive”. The state of mussel (Zebra mussels [2]; 1 mg KCl, 18/03/99 11:30) was “Alive”, the state of mussel (Zebra mussels [2]; 1 mg KCl, 18/03/99 13:30) was “Alive” and the state of mussel (Zebra mussels [2]; 1 mg KCl, 19/03/99 16:00) was “Alive”. For the same compound, the state of mussel (Zebra mussels [2]; 5 mg KCl, 17/03/99 16:30) was “Alive”, the state of mussel (Zebra mussels [2]; 5 mg KCl, 18/03/99 11:30) was “Alive” and the state of mussel (Zebra mussels [2]; 5 mg KCl, 18/03/99 13:30) was “Alive”. For the same compound, the state of mussel (Zebra mussels [2]; 5 mg KCl, 19/03/99 16:00) was “Alive”, the state of mussel (Zebra mussels [2]; 10 mg KCl, 17/03/99 16:30) was “Alive” and the state of mussel (Zebra mussels [2]; 10 mg KCl, 18/03/99 11:30) was “Alive”. The state of mussel (Zebra mussels [2]; 10 mg KCl, 18/03/99 13:30) was “Closed”, the state of mussel (Zebra mussels [2]; 10 mg KCl, 19/03/99 16:00) was “Dead” and the state of mussel (Zebra mussels [2]; 25 mg KCl, 17/03/99 16:30) was “Alive”. For the same compound, the state of mussel (Zebra mussels [2]; 25 mg KCl, 18/03/99 11:30) was “Dead”, the state of mussel (Zebra mussels [2]; 25 mg KCl, 18/03/99 13:30) was “Dead” and the state of mussel (Zebra mussels [2]; 25 mg KCl, 19/03/99 16:00) was “Dead”. The state of mussel (Zebra mussels [2]; 50 mg KCl, 17/03/99 16:30) was “Alive”, the state of mussel (Zebra mussels [2]; 50 mg KCl, 18/03/99 11:30) was “Dead” and the state of mussel (Zebra mussels [2]; 50 mg KCl, 18/03/99 13:30) was “Dead”. For the same compound, the state of mussel (Zebra mussels [2]; 50 mg KCl, 19/03/99 16:00) was “Dead”, the “effectiveness of KCl alone over the test period” value (Zebra mussels [2]; lower concentrations) was “not effective” and the “48-hour LC50” value (Threehorn Wartyback) was >2000^a. The “Time for mortality of all mussels” value (Zebra mussels [3]) was 8 h and the mortality (Zebra mussels [3]; at 8 hours) was 60%.
